Earlier results on 3 compounds are cited in PubChem BioAssay AID1259409 (Chemical Carcinogenesis Research Information System (CCRIS), 2018).

Structures are written as SMILES.

This data set has as its system rodent chemically induced tumor inhibition, incidence and multiplicity. The data set can be described thus: CCRIS tumor inhibitor studies.

`CC(C)C(=O)Nc1ccc([N+](=O)[O-])c(C(F)(F)F)c1`: the “tumour outcome (control, treated, inhibition, significance)” value by setting is: (Carcinogen: DIETHYLNITROSAMINE, 55-18-5, Dose [Inhibitor]: 0, 0.5 MG/G IN DIET FOR 3 WK BEGINNING AT 25 WK OF AGE (STUDY DURATION: 52 WK), Route [Inhibitor]: ORAL, Species: MOUSE, Strain/Sex: B6C3F1/MALE, Target Tissue: Type of Lesion: LIVER: TUMOR, Dose [Carcinogen]: 0.2 MICROMOLAR/G BW ONCE AT 6 WK OF AGE, Promoter: NONE USED) 81%, 50%, 38%, p<0.05; (Carcinogen: DIETHYLNITROSAMINE, 55-18-5, Dose [Inhibitor]: 0, 0.5 MG/G IN DIET FOR 3 WK POST CARCINOGEN DOSE (STUDY DURATION: 52 WK), Route [Inhibitor]: ORAL, Species: MOUSE, Strain/Sex: B6C3F1/MALE, Target Tissue: Type of Lesion: LIVER: TUMOR, Dose [Carcinogen]: 0.2 MICROMOLAR/G BW ONCE AT 6 WK OF AGE, Promoter: NONE USED) 81%, 63%, 22%, not significant; (Carcinogen: DIETHYLNITROSAMINE, 55-18-5, Dose [Inhibitor]: 0, 0.5 MG/G IN DIET FOR 27 WK BEGINNING AT 25 WK OF AGE (STUDY DURATION: 52 WK), Route [Inhibitor]: ORAL, Species: MOUSE, Strain/Sex: B6C3F1/MALE, Target Tissue: Type of Lesion: LIVER: TUMOR, Dose [Carcinogen]: 0.2 MICROMOLAR/G BW ONCE, Promoter: NONE USED) 81%, 53%, 35%, p<0.05; (Carcinogen: DIETHYLNITROSAMINE, 55-18-5, Dose [Inhibitor]: 0, 0.5 MG/G IN DIET FOR DURATION OF STUDY (STUDY DURATION: 52 WK), Route [Inhibitor]: ORAL, Species: MOUSE, Strain/Sex: B6C3F1/MALE, Target Tissue: Type of Lesion: LIVER: TUMOR, Dose [Carcinogen]: 0.2 MICROMOLAR/G BW ONCE AT 6 WK OF AGE, Promoter: NONE USED) 81%, 97%, -20%, p<0.05; (Carcinogen: N-BUTYL-N-(4-HYDROXYBUTYL)NITROSAMINE, 3817-11-6, Dose [Inhibitor]: 0, 50 MG/KG 2/WK FOR 11 WK BEGINNING POST CARCINOGEN TREATMENT (STUDY DURATION:21WK), Route [Inhibitor]: ORAL, Species: RAT, Strain/Sex: WISTAR/MALE, Target Tissue: Type of Lesion: URINARY BLADDER: CARCINOMA, Dose [Carcinogen]: 0.05% IN DRINKING WATER FOR 10 WK, Promoter: NONE USED) 15/17 (88%), 12/16, 75%, 15%, not significant; (Carcinogen: N-BUTYL-N-(4-HYDROXYBUTYL)NITROSAMINE, 3817-11-6, Dose [Inhibitor]: 0, 50 MG/KG 2/WK FOR 13 WK BEGINNING POST CARCINOGEN TREATMENT (STUDY DURATION: 20 WK), Route [Inhibitor]: ORAL, Species: RAT, Strain/Sex: WISTAR/MALE, Target Tissue: Type of Lesion: URINARY BLADDER: CARCINOMA, Dose [Carcinogen]: 0.05% IN DRINKING WATER FOR 7 WK, Promoter: NONE USED) 25/39 (64%), 10/21 (48%), 25%, not significant. The “tumour outcome (control, treated, inhibition, significance)” value (Carcinogen: N-BUTYL-N-(4-HYDROXYBUTYL)NITROSAMINE, 3817-11-6, Dose [Inhibitor]: 0, 200 MG/KG 2/WK FOR 13 WK BEGINNING POST CARCINOGEN TREATMENT (STUDY DURATION:20 WK), Route [Inhibitor]: ORAL, Species: RAT, Strain/Sex: WISTAR/MALE, Target Tissue: Type of Lesion: URINARY BLADDER: CARCINOMA, Dose [Carcinogen]: 0.05% IN DRINKING WATER FOR 7 WK, Promoter: NONE USED) is listed as 25/39 (64%), 5/17 (29%), 55%, p<0.05 and the “tumour outcome (control, treated, inhibition, significance)” value (Carcinogen: N-NUTYL-N-(4-HYDROXYBUTYL)NITROSAMINE, 3817-11-6, Dose [Inhibitor]: 0, 100 MG/KG 2/WK FOR 13 WK BEGINNING POIST CARCINOGEN TREATMENT (STUDY DURATION: 20 WK), Route [Inhibitor]: ORAL, Species: RAT, Strain/Sex: WISTAR/MALE, Target Tissue: Type of Lesion: URINARY BLADDER: CARCINOMA, Dose [Carcinogen]: 0.05% IN DRINKING WATER FOR 7 WK, Promoter: NONE USED) is on record as 25/39 (64%), 7/17 (41%), 36%, not significant.
For the compound `C[C@]12CCC(=O)C=C1CC[C@@H]1[C@@H]2[C@@H](O)C[C@@]2(C)[C@H]1CC[C@]2(O)C(=O)CO`, the “tumour outcome (control, treated, inhibition, significance)” value is, setting by setting: (Carcinogen: METHYLAZOXYMETHANOL ACETATE, 592-62-1, Dose [Inhibitor]: 7.5 MG/KG BW DAILY FOR 3 WK STARTING 21 WK POST CARCINOGEN TREATMENT (STUDY DURATION: 30 WK), Route [Inhibitor]: INTRARECTAL, Species: RAT, Strain/Sex: DONRYU/MALE, Target Tissue: Type of Lesion: LARGE INTESTINE: ADENOCARCINOMA, Dose [Carcinogen]: 20 MG/KG BW 1/WK FOR 6 WK, Promoter: NONE USED) 19/23 (83%), 16/29 (55%), 34%, p<0.05; (Carcinogen: METHYLAZOXYMETHANOL ACETATE, 592-62-1, Dose [Inhibitor]: 7.5 MG/KG BW DAILY FOR 3 WK STARTING 21 WK POST CARCINOGEN TREATMENT (STUDY DURATION: 30 WK), Route [Inhibitor]: INTRARECTAL, Species: RAT, Strain/Sex: DONRYU/MALE, Target Tissue: Type of Lesion: SMALL INTESTINE: ADENOCARCINOMA, Dose [Carcinogen]: 20 MG/KG BW 1/WK FOR 6 WK, Promoter: NONE USED) 10/23 (43%), 4/29 (14%), 67%, p<0.05; (Dose [Inhibitor]: 0, 1.5 MG 2/WK FOR 10 WK (STUDY DURATION: 65 WK), Route [Inhibitor]: INTRAMUSCULAR, Species: RAT, Strain/Sex: F344/MALE, Target Tissue: Type of Lesion: LIVER: HEPATOCELLULAR CARCINOMA, Dose [Carcinogen]: 100 UG 2/WK FOR 10 WK, Promoter: NONE USED) 12/13 (92%), 15/24 (63%), 32%, p<0.05.
Consider `CC(C)c1cc(C(=O)O)c(O)c(C(C)C)c1`, for which the “tumour outcome (control, treated, inhibition, significance)” value (Carcinogen: BENZO[A]PYRENE, 50-32-8, Dose [Inhibitor]: 2000 NMOL IN 0.2 ML ACETONE APPLIED ONCE TO DORSAL SKIN 15 MIN PRIOR TO CARCINOGEN DOSE (STUDY DURATION: 20 WK), Route [Inhibitor]: DERMAL, Species: MOUSE, Strain/Sex: SENCAR/FEMALE, Target Tissue: Type of Lesion: SKIN: PAPILLOMA, Dose [Carcinogen]: 200 NMOL IN 0.2 ML ACETONE ONCE) is 97%, 96%, 0.3%, not significant.
